According to ChEMBL document CHEMBL1201862, “PubChem BioAssay data set” (2004):
The source made the active and inactive calls.

Key:
[1] = luciferase reporter signal suppression in cells – H4 neuroglioma cells, luminescence, dose response (AID 1990); format: functional, cell-based
[2] = luciferase reporter signal reduction – luminescence, H4-C neuroglioblastoma cells, dose response (AID 2458); format: functional, cell-based;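 note: H4 neuroglioblastoma cells stably carrying a luciferase reporter gene fusion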
cells = format: functional, cell-based
[3] = alpha-synuclein stem-loop luciferase translation blockers – H4 neuroglioma cells, luminescence, confirmation (AID 1988); format: functional, cell-based
[4] = alpha-synuclein stem-loop translation blockers – luminescence, H4 neuroglioblastoma cells, dose confirmation, confirmation (AID 2454); format: functional, cell-based;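 note: H4 neuroglioblastoma cells carrying an alpha-synuclein 5'UTR luciferase reporter; potency for inhibition of the luciferase signal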
Vasopressin V1a receptor = Vasopressin V1a receptor (Homo sapiens, UniProt P37288); assay: Counterscreen for Oxytocin Receptor (OXTR) agonists: Fluorescence-based cell-based high throughput dose response assay to identify agonists of the vasopressin 1 receptor (V1R). [Related pubchem assays: 2435 (Primary screen (OXTR agonists in singlicate)), 434991 (Counterscreen (V1R agonists in triplicate)), 2482 (Summary (OXTR agonists)) …; format: functional
Chain of Vasopressin V1a receptor (P37288 whole entry): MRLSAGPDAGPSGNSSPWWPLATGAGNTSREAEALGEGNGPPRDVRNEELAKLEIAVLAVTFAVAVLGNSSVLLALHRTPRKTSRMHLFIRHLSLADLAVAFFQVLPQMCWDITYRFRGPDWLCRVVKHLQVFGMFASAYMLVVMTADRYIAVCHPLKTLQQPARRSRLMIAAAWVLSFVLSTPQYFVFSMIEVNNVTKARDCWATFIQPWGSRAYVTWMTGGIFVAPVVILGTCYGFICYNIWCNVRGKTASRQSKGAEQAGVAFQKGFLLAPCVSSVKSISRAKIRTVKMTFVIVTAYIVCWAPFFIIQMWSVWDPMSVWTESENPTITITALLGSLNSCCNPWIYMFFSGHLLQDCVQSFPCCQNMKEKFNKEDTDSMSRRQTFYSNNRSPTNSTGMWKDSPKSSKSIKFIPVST

Oxytocin receptor = Oxytocin receptor (Homo sapiens, UniProt P30559); assay: Fluorescence-based cell-based high throughput dose response assay for agonists of the Oxytocin Receptor (OXTR). [Related pubchem assays: 2435 (Primary screen (OXTR agonists in singlicate)), 434991 (Counterscreen (V1R agonists in triplicate)), 2482 (Summary (OXTR agonists)), 434963 (Confirmation screen (OXTR agonists in triplicate))]; format: functional
Chain of Oxytocin receptor (P30559 whole entry): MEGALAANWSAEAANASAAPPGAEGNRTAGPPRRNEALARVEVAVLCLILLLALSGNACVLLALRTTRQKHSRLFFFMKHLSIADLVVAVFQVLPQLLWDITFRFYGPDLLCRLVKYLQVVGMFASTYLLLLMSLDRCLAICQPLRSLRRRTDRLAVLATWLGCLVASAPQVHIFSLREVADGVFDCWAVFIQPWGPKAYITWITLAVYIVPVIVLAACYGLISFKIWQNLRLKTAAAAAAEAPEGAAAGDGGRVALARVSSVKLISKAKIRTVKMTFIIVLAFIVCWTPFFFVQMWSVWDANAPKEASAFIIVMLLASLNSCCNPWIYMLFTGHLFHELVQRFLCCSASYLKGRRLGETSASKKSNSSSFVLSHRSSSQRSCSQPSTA

[5] = reduction of Shn3 3'UTR-driven luciferase in osteoblasts – cell-based, Clone20 osteoblasts, firefly luciferase, cherry-picked, dose response (AID 624132); format: functional;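 note: firefly luciferase luminescence from reporter carrying the Shn3 3'UTR in osteoblasts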
[6] = loss of viability in HepG2 cells – cell-based, CellTiter-Glo, cherry-picked, cytotoxicity control for Shn3 inhibitor project, dose response (AID 624134); format: functional
[7] = non-specific 3'UTR reporter inhibition in Clone20-Shn3RL – cell-based, Renilla luciferase, cherry-picked, counter-screen for Shn3 inhibitor project, dose response (AID 624133); format: functional
Protein Wnt-3a = Protein Wnt-3a (Mus musculus, UniProt P27467); assay: antagonism of Wnt3a pathway luciferase reporter – Wnt-LIGHT cells, luminescence, selectivity assay for Gli-SUFU antagonist project, dose response (AID 651570); format: functional; details: read-out: IC50_Mean;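 note: Wnt-LIGHT reporter cells stimulated with conditioned medium from Wnt3a-producing cells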
Chain of Protein Wnt-3a (P27467 whole entry): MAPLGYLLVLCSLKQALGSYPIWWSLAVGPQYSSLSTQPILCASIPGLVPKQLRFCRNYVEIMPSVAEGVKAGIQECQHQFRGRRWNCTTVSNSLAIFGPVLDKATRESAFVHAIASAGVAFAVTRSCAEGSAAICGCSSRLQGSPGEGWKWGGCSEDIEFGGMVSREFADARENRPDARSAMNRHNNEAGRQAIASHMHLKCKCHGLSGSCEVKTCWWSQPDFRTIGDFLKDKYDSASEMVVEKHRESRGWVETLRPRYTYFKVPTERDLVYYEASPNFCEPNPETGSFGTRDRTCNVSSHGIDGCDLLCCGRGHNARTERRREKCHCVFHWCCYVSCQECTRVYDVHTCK

Estrogen receptor = target: T1, Estrogen receptor (Homo sapiens, UniProt P03372); assay: blockers of SRC-3 recruitment to ERα – biochemical, ELISA, streptavidin-HRP readout, orthogonal assay, confirmation (AID 1079)
T1 sequence (P03372 whole entry): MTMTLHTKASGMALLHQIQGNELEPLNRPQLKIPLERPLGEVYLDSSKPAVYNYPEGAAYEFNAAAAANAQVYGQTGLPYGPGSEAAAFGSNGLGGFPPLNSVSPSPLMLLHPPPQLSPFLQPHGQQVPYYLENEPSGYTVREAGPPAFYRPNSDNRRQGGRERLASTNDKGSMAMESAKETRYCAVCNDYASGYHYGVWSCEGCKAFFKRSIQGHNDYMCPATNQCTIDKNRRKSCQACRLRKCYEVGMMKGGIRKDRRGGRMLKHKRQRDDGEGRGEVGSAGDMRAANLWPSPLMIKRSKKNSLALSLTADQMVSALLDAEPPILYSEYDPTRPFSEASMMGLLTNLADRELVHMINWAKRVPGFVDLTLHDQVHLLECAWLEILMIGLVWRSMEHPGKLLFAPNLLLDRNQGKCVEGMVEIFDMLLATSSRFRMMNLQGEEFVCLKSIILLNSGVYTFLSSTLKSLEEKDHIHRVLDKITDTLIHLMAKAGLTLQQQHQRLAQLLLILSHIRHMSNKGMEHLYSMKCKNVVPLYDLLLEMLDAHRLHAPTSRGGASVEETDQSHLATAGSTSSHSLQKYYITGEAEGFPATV

COc1ccc(C2NCc3ccc4c(c3-n3cccc32)OCO4)cc1O (configuration not stated)
EC50 [1]: < 0.1 µM (active) | EC50 [2]: 2.6 µM (active) | EC50 (cells): 5.44 µM (active) | EC50 [3]: < 0.1 µM (active) | EC50 [4]: > 12 µM (not active)

COc1ccc(CNc2[nH]cnc3c4ccccc4nc2-3)cc1
EC50 (Vasopressin V1a receptor): > 29.9 µM (not active) | EC50 (Oxytocin receptor): 27.4 µM (not active) | AC50 [5]: 4.19 µM (active) | AC50 [6]: 28 µM (active) | AC50 [7]: 5.89 µM (active) | IC50 (Protein Wnt-3a): 12.4 µM (active)

O=C(CCCCCn1c(=S)[nH]c2ccccc2c1=O)N1CCN(c2cccc(Cl)c2)CC1
IC50 (Estrogen receptor): 0.35 µM (not active)
